Laboratory results: patent US9044482B2, “Use of aminoindane compounds in treating overactive bladder and interstitial cystitis” (priority 2012, dated 2015)

How the values were obtained:
bladder function = assay: In vivo assay of bladder function (cystometry) in conscious rats; design: species or system rat
Method: This study was performed in order to assess the effects of compounds on various aspects of bladder function in conscious rats. See, Clouse, 2012, Urology 79(6):1410e1-1410e6. Rats were prepared with indwelling polyethylene catheters positioned into the bladder through the dome and exteriorized at the scapular level. […] pressure was monitored by connecting the catheter to a commercial strain gauge via a T-connector that permitted the infusion of solutions and drugs. Cystometric recording commenced 48 hours after catheter implantation. Animals were continuously administered saline, with or without test compounds, through the catheter, at a rate of 2 mL/hr. Urine was collected and weighed using a force transducer and intravesical pressure was continually monitored in order to assess micturition amplitude, frequency and volume and bladder capacity. Saline perfusions were supplemented with test compounds in order to determine the effects on each of the above bladder function parameters.

[1] = system: isolated detrusor bladder muscle; assay: In vitro assay on isolated bladder detrusor muscle strips, EFS-induced contractions in organ bath; design: species or system guinea pig; details: for IC50, inhibition of EFS-induced detrusor contractions: cumulative concentration-response, isolated guinea pig detrusor strips; for steady-state inhibition of EFS-induced contractile response: drug 0.01% in organ bath
Method: Whole bladders were removed from euthanized female guinea pigs, longitudinal detrusor muscle strips were dissected from each bladder and were mounted in a conventional glass organ bath and perfused continuously with an oxygenated Krebs solution. Detrusor contractions were elicited in response to electrical field stimulation (EFS) and were recorded using isometric force transducers linked to a data acquisition software system. After an equilibration period, tissue strips were subjected to regular EFS for a period of 30 minutes or until stable baseline contractions were attained.

[2] = system: noxious urinary bladder distention; details: in vivo; cited from earlier work
micturition pattern = details: animal model of IC and OAB; cited from earlier work
[3] = infusion of 0.3% solution into bladder, conscious rats

Cc1ccccc1N(CC[C@H]1CCCC[N+]1(C)C)C1Cc2ccccc2C1.[I-] [(R)-1,1-dimethyl-2-[2-((indan-2-yl)(2-methylphenyl)amino)ethyl]piperidinium iodide]
duration of action on micturition frequency (bladder function; compared to lidocaine): longer duration of action

Cc1ccccc1N(CC[C@H]1CCCC[N+]1(C)C)C1Cc2ccccc2C1.[Br-] [example 43, (R)-1,1-dimethyl-2-[2-((indan-2-yl)(2-methylphenyl)amino)ethyl]piperidinium iodide]
period of effect on bladder capacity and micturition volume after administration (bladder function; infusion of 0.3% solution): 2 h | bladder capacity (bladder function; [3]): increase in bladder capacity | micturition volume (bladder function; [3]): decrease in micturition volume | time for which steady state inhibition was maintained after drug had been eliminated from the organ bath ([1]; 0.01%): at least 2 hours | IC50, inhibition of EFS-induced detrusor contractions [1]: ~0.0001% | steady-state inhibition of EFS-induced contractile response [1]: 30-45% | potency relative to lidocaine alone ([1]; from IC50 for inhibition of EFS-induced detrusor contractions): about 10 fold

Cc1cccc(C)c1OCC(C)N (stereo not shown) [mexilitine]
painful sensation of noxious urinary bladder distention [2]: prevents the painful sensation

CCN(CC)CC(=O)Nc1c(C)cccc1C [lidocaine, reference compound]
recovery of EFS-induced contractile response after washout ([1]; 0.01%, by 2 hours after washing out): around 80 % of predrug levels | IC50, inhibition of EFS-induced detrusor contractions [1]: ~0.001% | steady-state inhibition of EFS-induced contractile response [1]: ~40% | micturition pattern as determined by cystometry (micturition pattern): normalizes the micturition pattern
